Experimental data as given in ChEMBL document CHEMBL1153316, “Selectivity profiling of DegP substrates and inhibitors” (Bioorg Med Chem, 2009).
Peptide text beside a SMILES is read from it.

Key:
Escherichia coli [1] = assay: Inhibition of Escherichia coli degP assessed as residual proteolytic activity at 0.5 mM
[2] = Inhibition of elastase assessed as residual proteolytic activity at 0.5 mM
[3] = Inhibition of subtilisin assessed as residual proteolytic activity at 0.5 mM
[4] = biological target: Plasminogen (Homo sapiens) (UniProt P00747); assay: Inhibition of plasmin assessed as residual proteolytic activity at 0.5 mM
Plasminogen (Homo sapiens), sequence (P00747 97-580 limits assumed): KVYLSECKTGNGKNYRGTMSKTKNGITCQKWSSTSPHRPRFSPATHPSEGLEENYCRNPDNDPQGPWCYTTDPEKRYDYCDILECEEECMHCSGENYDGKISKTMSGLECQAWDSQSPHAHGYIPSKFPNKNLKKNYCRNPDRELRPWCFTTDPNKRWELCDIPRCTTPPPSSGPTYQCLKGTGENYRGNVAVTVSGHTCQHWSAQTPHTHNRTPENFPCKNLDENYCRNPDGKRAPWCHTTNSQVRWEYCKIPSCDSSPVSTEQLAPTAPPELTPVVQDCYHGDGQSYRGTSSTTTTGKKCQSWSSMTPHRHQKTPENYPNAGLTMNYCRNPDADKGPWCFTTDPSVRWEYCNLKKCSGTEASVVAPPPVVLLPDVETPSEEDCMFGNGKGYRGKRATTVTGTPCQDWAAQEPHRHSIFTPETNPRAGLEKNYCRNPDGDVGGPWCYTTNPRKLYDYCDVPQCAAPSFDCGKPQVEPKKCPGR
Plasminogen (Homo sapiens), sequence (P00747 581-810 limits assumed): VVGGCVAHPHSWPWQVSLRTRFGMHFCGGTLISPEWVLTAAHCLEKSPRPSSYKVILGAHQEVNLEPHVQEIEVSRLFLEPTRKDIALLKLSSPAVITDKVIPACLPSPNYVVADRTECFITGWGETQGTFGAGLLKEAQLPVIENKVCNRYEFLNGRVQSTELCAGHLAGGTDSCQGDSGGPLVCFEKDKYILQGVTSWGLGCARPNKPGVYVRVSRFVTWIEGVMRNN

[5] = Inhibition of trypsin assessed as residual proteolytic activity at 0.5 mM
[6] = Inhibition of chymotrypsin assessed as residual proteolytic activity at 0.5 mM
[7] = biological target: Prothrombin (Homo sapiens) (UniProt P00734); assay: Inhibition of thrombin assessed as residual proteolytic activity at 0.5 mM
[8] = Inhibition of kallikrein assessed as residual proteolytic activity at 0.5 mM
[9] = Inhibition of elastase
[10] = Inhibition of subtilisin
[11] = Inhibition of Escherichia coli degP
Escherichia coli [12] = assay: Inhibition of Escherichia coli degP assessed as specific activity at 0.5 mM; parameters: scale not given: the % may be the effect or the level left
[13] = Inhibition of elastase assessed as specific activity at 0.5 mM; parameters: scale not given: the % may be the effect or the level left
[14] = Inhibition of subtilisin assessed as specific activity at 0.5 mM; parameters: scale not given: the % may be the effect or the level left
[15] = biological target: Plasminogen (Homo sapiens) (UniProt P00747); assay: Inhibition of plasmin assessed as specific activity at 0.5 mM; parameters: scale not given: the % may be the effect or the level left
[16] = Inhibition of trypsin assessed as specific activity at 0.5 mM; parameters: scale not given: the % may be the effect or the level left
[17] = Inhibition of chymotrypsin assessed as specific activity at 0.5 mM; parameters: scale not given: the % may be the effect or the level left
[18] = biological target: Prothrombin (Homo sapiens) (UniProt P00734); assay: Inhibition of thrombin assessed as specific activity at 0.5 mM; parameters: scale not given: the % may be the effect or the level left
[19] = Inhibition of kallikrein assessed as specific activity at 0.5 mM; parameters: scale not given: the % may be the effect or the level left
Escherichia coli [20] = assay: Activity at Escherichia coli degP

Row | Activity (Escherichia coli [1]) [%] | Activity [2] [%] | Activity [3] [%] | Activity [4] [%] | Activity [5] [%] | Activity [6] [%] | Activity [7] [%] | Activity [8] [%] | Compound | other results
1 | 3 | < 1 | < 1 | 81 | 354 | 92 | 96 | 101 | CSCC[C@H](NC(=O)[C@@H]1CCCN1C(=O)[C@@H](N)CO)C(=O)N[C@@H](Cc1ccccc1)C(=O)N[C@@H](CCCCN)C(=O)NCC(=O)N[C@H](C(=O)CCl)C(C)C (HELM PEPTIDE1{S.P.M.F.K.G.V.[ClC[*:1]]}$$$$V2.0) | IC50 [9]: 220 µM; IC50 [10]: 0.001 µM; IC50 [11]: 75 µM
2 | – | – | – | – | – | – | – | – | CSCC[C@H](NC(=O)[C@@H]1CCCN1C(=O)[C@@H](N)CC(=O)O)C(=O)N[C@@H](Cc1ccccc1)C(=O)N[C@@H](CCCCN)C(=O)N[C@@H](CC(C)C)C(=O)N[C@H](C(=O)Nc1ccc([N+](=O)[O-])cc1)C(C)C (HELM PEPTIDE1{D.P.M.F.K.L.V.[O=[N+]([O-])c1ccc(N[*:1])cc1]}$$$$V2.0) | Activity (Escherichia coli [12]): 473%; Activity [13]: 4%; Activity [14]: 1%; Activity [15]: < 1%; Activity [16]: < 1%; Activity [17]: < 1%; Activity [18]: < 1%; Activity [19]: < 1%; Km (Escherichia coli [20]): 600 µM; Vmax (Escherichia coli [20]): 1.2 µmol/min
3 | 63 | < 1 | 143 | 62 | 591 | 48 | 101 | 122 | CSCC[C@H](NC(=O)[C@H](CCSC)NC(=O)[C@@H]1CCCN1C(=O)[C@H](CC(C)C)NC(=O)[C@@H](NC(=O)[C@H](CC(N)=O)NC(=O)[C@H](Cc1ccccc1)NC(=O)[C@@H](NC(=O)[C@@H]1CCCN1)C(C)C)[C@@H](C)O)C(=O)NCC(=O)N[C@@H](CCCCN)C(=O)N[C@@H](C)C(=O)N[C@@H](CO)C(=O)N1CCC[C@H]1C(=O)N[C@H](C(=O)CCl)C(C)C (HELM PEPTIDE1{P.V.F.N.T.L.P.M.M.G.K.A.S.P.V.[ClC[*:1]]}$$$$V2.0) | –
